Values quoted from earlier work as cited in article PMC9098912, “Molecular basis for inhibiting human glucose transporters by exofacial inhibitors” (Nature Communications, 2022).

What was measured:
GLUT3 = test system: GLUT3; parameters: method as in PMID 12792024; conditions: cited from earlier work
GLUT1/3 over GLUT2 = test system: GLUT1/3 over GLUT2; parameters: method as in Siebeneicher et al., 2016; conditions: ref Siebeneicher et al., 2016; cited from earlier work
GLUT1 = test system: GLUT1; parameters: method as in Siebeneicher et al., 2016; conditions: SAR of Bayer compounds; ref Siebeneicher et al., 2016; cited from earlier work

Row | SMILES | GLUT3 inhibition (GLUT3) | Selectivity (GLUT1/3 over GLUT2) | GLUT1 potency (GLUT1)
1 | C=CCCCCCCCCCO[C@H]1[C@H](O)[C@@H](CO)OC(O)[C@@H]1O (stereo partly drawn) [C3361] | weak inhibitor |  | 
2 | COc1ccc(F)cc1N1CCN(c2ncnc3c2cnn3-c2ccccc2)CC1 [cmpd 15] |  | selective inhibition to GLUT1/3 over GLUT2 | favors GLUT1 association
